Measured values as given in the NIST ThermoML archive (doi:10.1021/acs.jced.9b00507).

Conditions: 100 kPa, Liquid; for viscosity: Concentric cylinders viscometry; for mass density: Vibrating tube method

CCCCCCn1cc[n+](C)c1.O=[N+]([O-])[O-] [1-hexyl-3-methylimidazolium nitrate]
Conditions | mass density [kg/m3] | viscosity [mPa·s]
293.15 K | 1120.3 | 804.17
298.15 K | 1117.5 | 545.25
303.15 K | 1114.3 | 369.14
308.15 K | 1111.1 | 257.59
313.15 K | 1107.8 | 185.67
318.15 K | 1104.7 | 140.18
323.15 K | 1101.6 | 110.94
